From BindingDB's records for doi:10.1016/j.bmcl.2009.05.071 (Astrazeneca, 2009)

Biological target: T1, Procathepsin L [114-333,T223A] (Homo sapiens, UniProt P07711, T223A)
T1 construct: 114-333
Assay: Cathepsin Inhibition Assay
Conditions: pH 7; 37 °C
Method: IC50 values for inhibition of Cathepsins were determined from dose dependent inhibition of cleavage of fluorogenic, AMC-tagged, peptide substrates.

T1 sequence (P07711 114-333 T223A): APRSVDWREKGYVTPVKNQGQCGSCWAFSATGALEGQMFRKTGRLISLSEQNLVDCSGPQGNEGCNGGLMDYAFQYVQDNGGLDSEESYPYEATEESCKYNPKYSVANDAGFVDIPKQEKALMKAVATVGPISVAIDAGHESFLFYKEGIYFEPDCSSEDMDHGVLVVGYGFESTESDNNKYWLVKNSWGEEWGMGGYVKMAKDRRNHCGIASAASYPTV

IC50 [nM] | Structure (SMILES)
251 | N#CCNC(=O)[C@H](Cc1cccc(Cl)c1)NC(=O)c1ccccc1 [Dipeptidyl nitrile inhibitor, 1]
13 | Cn1nc(C(C)(C)C)cc1C(=O)N[C@@H](Cc1cccc(Cl)c1)C(=O)NCC#N [Dipeptidyl nitrile inhibitor, 25]
